Results published in patent US12134610B2, “Somatostatin subtype-2 receptor (SST2R) targeted therapeutics and uses thereof” (priority 2022, dated 2024).
Like-named read-outs stand apart in the source and are kept apart here. Starred links: 1 amine or outer side, 2 acyl side, 3 side chain; linkers in the order of their positions; H or OH if unused. Non-standard residues stand in square brackets, D forms with d. Residues, ends and D or L forms follow the SMILES beside them. *: point of attachment. X1 = Cc1cc(F)cc(-c2cnc(NCCNC(=O)CCOCCC(=O)*)c(-c3nc4ccc(Cl)cc4[nH]3)c2N2CCC(N)CC2)c1; X5 = Cc1cc(F)cc(-c2cnc(NCCNC(=O)CCOCCC(=O)*)c(-c3nc4cc(Cl)ccc4[nH]3)c2N2CCC(N)CC2)c1; Dolaproine = CO[C@@H]([C@@H]1CCCN1)[C@@H](C)C(=O)O; Dil = CC[C@H](C)[C@H](NC)[C@@H](CC(=O)O)OC; PABC = O=C(OCc1ccc(N[*:1])cc1)[*:2]; X2 = C[C@@H](N*)[C@@H](O)c1ccccc1; Cya = N[C@@H](CS(=O)(=O)O)C(=O)O; Cit = NC(=O)NCCC[C@H](N)C(=O)O; NMeV = CN[C@H](C(=O)O)C(C)C

Key:
Format in all cases: cell-based
[1] = tested on: NCI-H524 (ATCC) human small cell lung cancer cells; conditions: 2 h
Protocol: SMDCs of the present invention were assessed in an in vitro assay evaluating the inhibition of cell proliferation. NCI-H524 (ATCC) human small cell lung cancer cells were plated in 96-well V-bottom plates (Costar) at a concentration of 5,000 cells/well. 24 h later, the cells were treated for 2 h with a SMDC. SMDC starting dose was 1 uM and two-fold serial dilutions were done for a total of 11 points. After 2 h of treatment, cells were spun down, and the drug-containing media was removed, and fresh complete media was added and used to resuspend the cells, which were spun again. After removal of the media, the cells were resuspended in complete medium and incubated for an additional 70 h. Cell proliferation was assessed using the CellTiter Glo Assay according to the standard protocol (Promega). Luminescence was measured using a TECAN plate reader. Percent proliferation inhibition was calculated using the following formula: % inhibition=(Luminescence Control−Luminescence Treatment)/Luminescence Control*100. IC50 curves were generated using the nonlinear regression analysis (four-parameter) with GraphPad Prism 9.

[2] = target: T1, human somatostatin receptor subtype 2 (Homo sapiens, UniProt P30874); experiment: Functional cAMP assay for SSTR2 agonists (HTRF) in CHO-K1 cells; conditions: CHO-K1 cells stably expressing human SST2, 20 min
T1 construct: expressed in transfected cells
T1 sequence (P30874 whole entry): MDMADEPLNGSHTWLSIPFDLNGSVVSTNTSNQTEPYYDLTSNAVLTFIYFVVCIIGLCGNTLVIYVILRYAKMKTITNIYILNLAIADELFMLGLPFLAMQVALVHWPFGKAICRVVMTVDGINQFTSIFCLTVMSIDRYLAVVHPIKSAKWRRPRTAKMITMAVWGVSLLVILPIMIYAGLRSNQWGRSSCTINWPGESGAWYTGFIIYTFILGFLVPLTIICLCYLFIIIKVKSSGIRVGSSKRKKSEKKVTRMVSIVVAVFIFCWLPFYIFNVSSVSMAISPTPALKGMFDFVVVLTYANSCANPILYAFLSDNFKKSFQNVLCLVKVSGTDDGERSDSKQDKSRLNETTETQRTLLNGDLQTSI
Excerpt: General overview: All five SSTR subtypes are Gi coupled G-protein coupled receptors (GPCRs) that lead to decreases in intracellular cyclic AMP (cAMP) when activated by an agonist. Therefore, measurement of intracellular cAMP levels can be used to assess whether compounds of the invention are agonists of SSTR subtypes (John Kelly, Troy Stevens, W. Joseph Thompson, and Roland Seifert, Current Protocols in Pharmacology, 2005, 2.2.1-2.2). One example of an intracellular cAMP assay is described below.
Functional Assay for SSTR2 Agonists
Four days prior to the assay, 2,000 Chinese hamster ovary cells (CHO-K1, ATCC #CCL-61) stably expressing the human somatostatin receptor subtype 2 are plated in each well of a 96-well tissue culture-treated plate in Ham's F12 growth media (ThermoFisher #10-080-CM) supplemented with 10% donor bovine serum (Gemini Bio-Products #100-506), 100 U/mL penicillin; 100 ug/mL streptomycin; 2 mM L-glutamine (Gemini Bio-Products #400-110) and 0.2 mg/mL hygromycin B (GoldBio #31282-04-9). The cells are cultured at 37° C., 5% CO2 and 95% humidity. cAMP is measured with HTRF dynamic cAMP assay (Cisbio, #62AM5PEJ) per manufacturer's instructions. On the day of the assay, the media is aspirated and the cells are treated with 50 μL of stimulation buffer supplemented with 10.2 mM 3-Isobutyl-1-methylxanthine (IBMX, Millipore Sigma #15879) and 1.6 μM NKH477 (Tocris #1603), plus various dilutions of SMDCs of the present invention. The cells are incubated for 20 minutes at 37° C. (the final concentration of the compounds of the invention are typically 0-10,000 nM). The cells are treated with 50 μL of lysis buffer (HRTF cAMP kit, Cisbio) and incubated at room temperature for 30 minutes with rotary shaking at 600 rpm, and then diluted with 150 μL of stimulation buffer and shaken for an additional five minutes at 300 rpm. The lysate is transferred to 384-well plates and incubated for 1-24 hours at room temperature, and cAMP accumulation is detected by d2-labeled cAMP and Anti-cAMP-Cryptate. The time-resolved fluorescent signal is read using a m1000 Pro (Tecan) or CLARIOStar (BMG Labtech) microplate reader, where the samples are excited with light at 340 nm and emission light is measured at 620 nm and 665 nm. The data is expressed as a calculation of the fluorescence ratio (665 nm/620 nm). The intracellular cAMP concentrations are calculated by regression to a standard curve and are plotted vs. the concentration of the compounds of the invention. The EC50 of the compounds are calculated using standard methods. All data manipulations are in GraphPad Prism v9 (GraphPad, San Diego, CA).

SST2 = target: T2, SST2 (Homo sapiens, UniProt P30874); experiment: PathHunter CHO-K1 SST2 internalization assay; conditions: PathHunter CHO-K1 SST2, 90 min
T2 construct: host or cells: PathHunter CHO-K1 SST2 cells
T2 sequence (P30874 whole entry): as above
Protocol: SMDCs of the present invention were assessed in vitro using the human PathHunter CHO-K1 SST2 β-arrestin2 and PathHunter CHO-K1 SST2 Internalization Assays from DiscoverX. The CHO-K cells were seeded in 20 μLs of cell culture medium in a white-walled 384 well tissue culture-compatible plate at a density of 2500 cells/well. After a 48-hour incubation, cells were treated with 5 μLs of a 1:3 serially diluted SST2 SMDC prepared at 5× concentration with a final top compound concentration of 10 uM for 90 min at 37 C and in 5% CO2. 11 dilutions were tested as well as one treatment that was compound free. After incubation, the media containing treatments were discarded and 20 μL of a working solution of Beta-Glo from Promega Beta-Glo Assay System was added to each well. The plate was then incubated for 60 min at room temperature in the dark. Luminescence was measured using a Tecan plate reader. IC50 curves were generated using the nonlinear regression analysis (four-parameters) with GraphPad Prism 9. Results were the average of duplicates and are corrected for background.

| Structure (SMILES) | EC50 [1] | EC50 ([2]; read-out: hSST2 cAMP Avg EC50) | EC50 (SST2; read-out: Internalization EC50) | further results |
| --- | --- | --- | --- | --- |
| CC[C@H](C)[C@@H]([C@@H](CC(=O)N1CCC[C@H]1[C@H](OC)[C@@H](C)C(=O)N[C@H](C)[C@@H](O)c1ccccc1)OC)N(C)C(=O)[C@@H](NC(=O)[C@H](C(C)C)N(C)C(=O)OCc1ccc(NC(=O)[C@H](CCCNC(N)=O)NC(=O)[C@@H](NC(=O)[C@H](CS(=O)(=O)O)NC(=O)CCOCCOCCOCCOCCC(=O)NCCNc2ncc(-c3cc(C)cc(F)c3)c(N3CCC(N)CC3)c2-c2nc3cc(Cl)ccc3[nH]2)C(C)C)cc1)C(C)C [Compound 81] | 32 nM | – | – | – |
| CC[C@H](C)[C@@H]([C@@H](CC(=O)N1CCC[C@H]1[C@H](OC)[C@@H](C)C(=O)N[C@H](C)[C@@H](O)c1ccccc1)OC)N(C)C(=O)[C@@H](NC(=O)[C@H](C(C)C)N(C)C(=O)OCc1ccc(NC(=O)[C@H](CCCNC(N)=O)NC(=O)[C@@H](NC(=O)[C@H](CS(=O)(=O)O)NC(=O)[C@H](CCC(=O)O)NC(=O)CCOCCC(=O)NCCNc2ncc(-c3cc(C)cc(F)c3)c(N3CCC(N)CC3)c2-c2nc3ccc(Cl)cc3[nH]2)C(C)C)cc1)C(C)C [Compound 115] (X1-E[Cya]V[Cit][PABC][NMeV]V[Dil][Dolaproine]-X2) | – | 0.08 nM | 3.6 nM | – |
| CC[C@H](C)[C@@H]([C@@H](CC(=O)N1CCC[C@H]1[C@H](OC)[C@@H](C)C(=O)N[C@H](C)[C@@H](O)c1ccccc1)OC)N(C)C(=O)[C@@H](NC(=O)[C@H](C(C)C)N(C)C(=O)OCc1ccc(NC(=O)[C@H](C)NC(=O)[C@@H](NC(=O)[C@H](CCC(=O)O)NC(=O)CCOCCC(=O)NCCNc2ncc(-c3cc(C)cc(F)c3)c(N3CCC(N)CC3)c2-c2nc3cc(Cl)ccc3[nH]2)C(C)C)cc1)C(C)C [Compound 32] (X5-EVA[PABC][NMeV]V[Dil][Dolaproine]-X2) | 155 nM | – | – | – |
| Cc1cc(F)cc(-c2cnc(NCCNC(=O)CCOCCOCCOCCOCCNC(=O)CCCCC[N+]3=C(/C=C/C=C/C=C4/N(C)c5ccccc5C4(C)C)C(C)(C)c4ccccc43)c(-c3nc4ccc(Cl)cc4[nH]3)c2N2CCC(N)CC2)c1 [Compound 12, 1-[5-({14-[(2-{[4-(4-aminopiperidin-1-yl)-3-(6-chloro-1H-1,3-benzodiazol-2-yl)-5-(3-fluoro-5-methylphenyl)pyridin-2-yl]amino}ethyl)carbamoyl]-3,6,9,12-tetraoxatetradecan-1-yl}carbamoyl)pentyl]-3,3-dimethyl-2-[(1E,3E)-5-[(2E)-1,3,3-trimethyl-2,3-dihydro-1H-indol-2-ylidene]penta-1,3-dien-1-yl]-3H-indol-1-ium] | – | 0.39 nM | 2.9 nM | – |
| CC[C@H](C)[C@@H]([C@@H](CC(=O)N1CCC[C@H]1[C@H](OC)[C@@H](C)C(=O)N[C@H](C)[C@@H](O)c1ccccc1)OC)N(C)C(=O)[C@@H](NC(=O)[C@H](C(C)C)N(C)C(=O)OCc1ccc(NC(=O)[C@H](CCCNC(N)=O)NC(=O)[C@@H](NC(=O)[C@H](CS(=O)(=O)O)NC(=O)CCOCCOCCOCCOCCC(=O)NCCNc2ncc(-c3cc(C)cc(F)c3)c(N3CCC(N)CC3)c2-c2nc3ccc(Cl)cc3[nH]2)C(C)C)cc1C(=O)NCCN)C(C)C [Compound 157] | – | 0.17 nM | 12 nM | – |
| CC[C@@]1(O)C(=O)OCc2c1cc1n(c2=O)Cc2c-1nc1cc(F)c(C)c3c1c2[C@@H](NC(=O)OCc1ccc(NC(=O)[C@H](CCCNC(N)=O)NC(=O)[C@@H](NC(=O)CCOCCOCCOCCOCCC(=O)NCCNc2ncc(-c4cc(C)cc(F)c4)c(N4CCC(N)CC4)c2-c2nc4ccc(Cl)cc4[nH]2)C(C)C)c(O[C@@H]2O[C@H](C(=O)O)[C@@H](O)[C@H](O)[C@H]2O)c1)CC3 [Compound 127] | – | – | – | EC50 ([2]; hSST2 cAMP Avg EC50 (nM)): 0.26 nM; EC50 (SST2; Internalization EC50 (nM)): 13 nM |
